Data from US8268846B2, “Amino heterocyclic linked pyrimidine derivatives” (Abbott Laboratories, priority 2008, dated 2012).

Tests used:
histamine H4 receptor [1] = molecular target: T1, histamine H4 receptor (Homo sapiens, UniProt Q9H3N8); assay: In vitro histamine H4 potency in FLIPR (Ca2+ flux, HEK-293 cells coexpressing Gαqi5); assay type: cell-based; settings: for Potency: Kb values for antagonists and inverse agonists, block of histamine-induced fluorescence
T1 construct: expressed in transfected cells
T1 sequence (Q9H3N8 whole entry, species assumed): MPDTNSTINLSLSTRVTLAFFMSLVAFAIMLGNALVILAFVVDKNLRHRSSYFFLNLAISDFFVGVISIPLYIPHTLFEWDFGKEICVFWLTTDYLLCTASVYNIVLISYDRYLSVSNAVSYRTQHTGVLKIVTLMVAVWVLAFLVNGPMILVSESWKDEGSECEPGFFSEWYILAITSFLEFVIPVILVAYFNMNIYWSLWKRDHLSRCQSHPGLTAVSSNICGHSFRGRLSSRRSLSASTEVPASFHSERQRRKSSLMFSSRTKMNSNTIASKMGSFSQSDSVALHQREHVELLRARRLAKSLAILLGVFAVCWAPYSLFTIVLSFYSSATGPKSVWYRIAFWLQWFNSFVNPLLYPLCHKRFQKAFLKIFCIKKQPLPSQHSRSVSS
Excerpt: There are many methods available to show the effectiveness of compounds as histamine H4 receptor ligands. Histamine H4 receptors from mammalian species have been cloned. Methods to clone, express, and assess the potency and functional activity of such cloned genes are well known to those skilled in the art of molecular biology. Examples of methods of cloning and expressing histamine H4 receptors, and of assessing the potency and functional activity are described in Nguyen, et al. Molecular Pharmacology (2001) vol. 59 pp. 427-433; Zhu, et al. Molecular Pharmacology (2001) vol. 59 pp. 434-441; Coge, et al., Biochemical and Biophysical Research Communications (2001) vol. 284, pp. 301-309; Liu, et al. Molecular Pharmacology (2001) vol. 59 pp. 420-426; Liu, et al. Journal of Pharmacology and Experimental Therapeutics (2001) v. 299, pp. 121-130; and Thurmond, et al. Journal of Pharmacology and Experimental Therapeutics (2004) v. 309, pp. 404-413. In the present case, to determine the potency and effectiveness of representative compounds of this invention as histamine-H4 receptor ligands (H4 receptor ligands), the following tests were conducted according to previously described methods (see Esbenshade, et al., Biochemical Pharmacology (2004), vol. 68, pp. 933-945, and in Krueger, et al., Journal of Pharmacology and Experimental Therapeutics (2005) v. 314, pp. 271-281): histamine H4 receptors were cloned and stably expressed in HEK-293 (human embryonic kidney) cells coexpressing a Gαqi5. Before testing, cells are loaded with a Ca^+2 sensitive fluorescent dye, in this case Fluo-4 (Invitrogen, Carlsbad, Calif.). In the case of partial agonist or agonist ligands, addition of compound to the cells leads to the increase in intracellular Ca^+2 which is detected by FLIPR (Fluorescence Imaging Plate Reader; Molecular Devices, Sunnyvale, Calif.) technology. In a similar manner, compounds that are antagonists or inverse agonists, block the increase in fluorescence induced by the full histamine H4 agonist histamine, and partial agonists reduce the amount of fluorescence induced by the full histamine H4 agonist histamine. The fluorescence intensities measured before addition of the test compound are subtracted from the fluorescence intensities at later time points. Peak response values determined at each concentration of ligand are expressed as a percentage of the response obtained with the full agonist histamine. Concentration versus response data are analyzed to obtain compound potency as Kb values for antagonists and inverse agonists and as EC50 values for partial agonists.

histamine H4 receptor [2] = molecular target: T1, histamine H4 receptor; assay: [3H]-histamine competition binding assay, membranes of HEK-293 cells transfected with histamine H4 receptor; settings: displacing 3H-histamine; Ki by Cheng-Prusoff equation; read-out: Potency
Experimental: The potency of compounds of the invention in displacing ^3H-histamine in competition binding assays is assessed by methods described in Esbenshade, et al., Biochemical Pharmacology (2004), vol. 68, pp. 933-945. In this assay, membranes were prepared from HEK-293 cells transiently transfected with the pCINeo expression vector harboring the histamine H4 receptor by homogenization of the cells on ice in TE buffer (50 mM Tris-HCl buffer, pH 7.4, containing 5 mM EDTA), 1 mM benzamidine, 2 μg/mL aprotinin, 1 μg/mL leupeptin, and 1 μg/mL pepstatin. The homogenate was centrifuged at 40,000 g for 20 minutes at 4° C. This step was repeated, and the resulting pellet was resuspended in TE buffer. Aliquots were frozen at −70° C. until needed. On the day of assay, membranes were thawed and diluted with TE buffer. Competition radioligand binding assays were performed with increasing concentrations of test compound in the presence of [^3H]-histamine incubated at 25° C. for 1 hour in a total volume of 0.5 mL of 50 mM Tris, 5 mM EDTA, pH 7.4. All binding reactions were terminated by filtration under vacuum onto polyethylenimine (0.3%) presoaked Unifilters (PerkinElmer Life Sciences) or Whatman GF/B filters (Whatman, Clifton, N.J.) followed by three brief washes with 4 mL of ice-cold TE buffer. Bound radiolabel was determined by liquid scintillation counting. For all of the radioligand competition binding assays, IC50 values and Hill slopes were determined by Hill transformation of the data and Ki values were determined by the Cheng-Prusoff equation. The following table of representative histamine H4 receptor ligands is provided, along with potency values: […]

Structure (SMILES): Nc1nccc(NCCNc2nc(N)nc3c2CCCc2ccccc2-3)n1 [Example 1, N^4-{2-[(2-aminopyrimidin-4-yl)amino]ethyl}-6,7-dihydro-5H-benzo[6,7]cyclohepta[1,2-d]pyrimidine-2,4-diamine]
- Potency (histamine H4 receptor [1]): 204 nM

Structure (SMILES): CN(CCNc1ccnc(N)n1)c1nc(N)nc2c1CCCc1ccccc1-2 [Example 2, N^4-{2-[(2-aminopyrimidin-4-yl)amino]ethyl}-N^4-methyl-6,7-dihydro-5H-benzo[6,7]cyclohepta[1,2-d]pyrimidine-2,4-diamine]
- Ki (histamine H4 receptor [2]): 3.5 nM
- Potency (histamine H4 receptor [1]): 25 nM

Structure (SMILES): Nc1nccc(NCCCNc2nc(N)nc3c2CCCc2ccccc2-3)n1 [Example 3, N^4-{3-[(2-aminopyrimidin-4-yl)amino]propyl}-6,7-dihydro-5H-benzo[6,7]cyclohepta[1,2-d]pyrimidine-2,4-diamine]
- Potency (histamine H4 receptor [1]): 309 nM

Structure (SMILES): Nc1ccnc(NCCNc2nc(N)nc3c2CCCc2ccccc2-3)n1 [Example 4, N^4-{2-[(4-aminopyrimidin-2-yl)amino]ethyl}-6,7-dihydro-5H-benzo[6,7]cyclohepta[1,2-d]pyrimidine-2,4-diamine]
- Potency (histamine H4 receptor [1]): 1349 nM

Structure (SMILES): Nc1nccc(NCCNc2cc(-c3ccccc3)nc(N)n2)n1 [Example 5, N^4-{2-[(2-aminopyrimidin-4-yl)amino]ethyl}-6-phenylpyrimidine-2,4-diamine]
- Potency (histamine H4 receptor [1]): 8.7 nM

Structure (SMILES): Nc1nccc(NCCNc2cc(-c3cccc(Cl)c3)nc(N)n2)n1 [Example 6, N^4-{2-[(2-aminopyrimidin-4-yl)amino]ethyl}-6-(3-chlorophenyl)pyrimidine-2,4-diamine]
- Ki (histamine H4 receptor [2]): 6.6 nM
- Potency (histamine H4 receptor [1]): 2.5 nM

Structure (SMILES): Nc1nccc(NCCNc2cc(-c3cc(Cl)cc(Cl)c3)nc(N)n2)n1 [Example 7, N^4-{2-[(2-aminopyrimidin-4-yl)amino]ethyl}-6-(3,5-dichlorophenyl)pyrimidine-2,4-diamine]
- Potency (histamine H4 receptor [1]): 69 nM

Structure (SMILES): COc1ccc(Cl)cc1-c1cc(NCCNc2ccnc(N)n2)nc(N)n1 [Example 8, N^4-{2-[(2-aminopyrimidin-4-yl)amino]ethyl}-6-(5-chloro-2-methoxyphenyl)pyrimidine-2,4-diamine]
- Potency (histamine H4 receptor [1]): 589 nM

Structure (SMILES): Nc1nccc(NCCNc2cc(/C=C/c3ccccc3)nc(N)n2)n1 [Example 9, N^4-{2-[(2-aminopyrimidin-4-yl)amino]ethyl}-6-[(E)-2-phenylvinyl]pyrimidine-2,4-diamine]
- Ki (histamine H4 receptor [2]): 20 nM
- Potency (histamine H4 receptor [1]): 85 nM

Structure (SMILES): Nc1nccc(NCCNc2nc(N)nc3c2CCCC32CCCC2)n1 [Example 10, N^4′-{2-[(2-aminopyrimidin-4-yl)amino]ethyl}-6′,7′-dihydro-5′H-spiro[cyclopentane-1,8′-quinazoline]-2′,4′-diamine]
- Ki (histamine H4 receptor [2]): 7.4 nM
- Potency (histamine H4 receptor [1]): 32 nM

Structure (SMILES): Nc1nccc(NCCNc2nc(N)nc3c2CCCC(c2ccccc2)C3)n1 (stereo not shown) [Example 11, N^4-{2-[(2-aminopyrimidin-4-yl)amino]ethyl}-8-phenyl-6,7,8,9-tetrahydro-5H-cyclohepta[d]pyrimidine-2,4-diamine]
- EC50 (histamine H4 receptor [1]; EC50 values for partial agonists): 2340 nM

Structure (SMILES): Nc1nccc(NCCNc2ncnc3c2oc2ccccc23)n1 [Example 12, N^4-[2-([1]benzofuro[3,2-d]pyrimidin-4-ylamino)ethyl]pyrimidine-2,4-diamine]
- Potency (histamine H4 receptor [1]): 2089 nM
